Values quoted from earlier work in patent publication US20140038836A1, “Novel Pharmacogene Single Nucleotide Polymorphisms and Methods of Detecting Same” (priority 2012, published 2014).
Read-outs that look alike come from different tables or passages of the source.

Assays:
[1] = biological target: T1, ADRA2A (alpha2A subtype alpha-2-adrenergic receptor) (Homo sapiens, UniProt P08913); details: for rank order for antagonists: antagonists of the alpha2A receptor; for rank order of potency for agonists: agonists of the alpha2A receptor
T1 sequence (P08913 1-465): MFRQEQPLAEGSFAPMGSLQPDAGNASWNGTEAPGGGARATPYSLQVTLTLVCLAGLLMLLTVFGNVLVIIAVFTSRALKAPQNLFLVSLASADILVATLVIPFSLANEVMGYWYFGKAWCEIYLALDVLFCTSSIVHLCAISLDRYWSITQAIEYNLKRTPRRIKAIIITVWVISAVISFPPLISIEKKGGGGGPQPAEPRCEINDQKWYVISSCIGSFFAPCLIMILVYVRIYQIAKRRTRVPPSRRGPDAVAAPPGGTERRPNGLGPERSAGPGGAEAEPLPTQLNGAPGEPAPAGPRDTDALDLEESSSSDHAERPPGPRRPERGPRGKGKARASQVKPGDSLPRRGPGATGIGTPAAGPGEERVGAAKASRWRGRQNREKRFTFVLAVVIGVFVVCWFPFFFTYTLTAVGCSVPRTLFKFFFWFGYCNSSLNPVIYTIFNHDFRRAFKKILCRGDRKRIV

[2] = test system: psychotic Caucasian patients; details: 3435CC or 2677GG genotypes versus heterozygous or TT carriers
[3] = homozygote ABCB1 3435TT carriers
[4] = test system: patients of Asian ethnicity with Major Depressive Disorder; details: carriers of 3435TT (rs1045642) genotype, p=0.001
[5] = test system: Caucasian patients with major depression; details: ABCB1 3435TT allele; P=0.042, 95% CI 1.01-1.86
[6] = test system: patients with schizophrenia; details: (T) allele of rs3813929
[7] = test system: Japanese major depression sample; details: 3435TT genotype (p=0.0008), haplotype block 3435C-2677G-1236T, 6 weeks
[8] = test system: schizophrenic Chinese patients from Shanghai; details: 230-bp allele of (GT)n repeat or 230-bp/C-270/rs6265G haplotype versus other alleles or haplotypes
[9] = test system: patients diagnosed with generalized anxiety disorder; details: carriers of HTR2A rs7997012 G-allele

For `C=CCc1ccccc1OCC(O)CNC(C)C` (stereo not shown) [alprenolol], the “rank order for antagonists” value [1] is given as “yohimbine>phentolamine=mianserine>chlorpromazine=spiperone=prazosin>propanolol>alprenolol=pindolol”.

In the case of `CN(C)CCC=C1c2ccccc2CCc2ccccc21` [amitriptyline], the P-gp substrate property (P-gp) is given as “substrates of P-gp”.

In the case of `CN(C)CCCN1c2ccccc2Sc2ccc(Cl)cc21` [chlorpromazine], the “rank order for antagonists” value [1] is given as “yohimbine>phentolamine=mianserine>chlorpromazine=spiperone=prazosin>propanolol>alprenolol=pindolol”.

For `CN(C)CCCC1(c2ccc(F)cc2)OCc2cc(C#N)ccc21` (stereo not shown) [citalopram], the P-gp substrate property (P-gp) is listed as “substrates of P-gp”.

In the case of `Clc1cccc(Cl)c1N=C1NCCN1` [clonidine], the “rank order of potency for agonists” value [1] is listed as “oxymetazoline>clonidine>epinephrine>norepinephrine>phenylephrine>dopamine>p-synephrine>p-tyramine>serotonin=p-octopamine”.

In the case of `CN1CCN(C2=Nc3cc(Cl)ccc3Nc3ccccc32)CC1` [clozapine], the dose-normalized clozapine levels [2] is given as “significantly lower”.

In the case of `C[C@H]1O[C@@H](O[C@H]2[C@@H](O)C[C@H](O[C@H]3[C@@H](O)C[C@H](O[C@H]4CC[C@@]5(C)[C@H](CC[C@@H]6[C@@H]5C[C@@H](O)[C@]5(C)[C@@H](C7=CC(=O)OC7)CC[C@]65O)C4)O[C@@H]3C)O[C@@H]2C)C[C@H](O)[C@@H]1O` [digoxin], the “digoxin plasma levels after oral administration” value [3] is given as “increased”.

For `CNC[C@H](O)c1ccc(O)c(O)c1` [epinephrine], the “rank order of potency for agonists” value [1] is listed as “oxymetazoline>clonidine>epinephrine>norepinephrine>phenylephrine>dopamine>p-synephrine>p-tyramine>serotonin=p-octopamine”.

For `CN(C)CCC[C@@]1(c2ccc(F)cc2)OCc2cc(C#N)ccc21` [escitalopram], the “remission on the antidepressant” value [4] is listed as “slower remission”.

In the case of `CN1CCN2c3ccccc3Cc3ccccc3C2C1` (stereo not shown) [mianserine], the “rank order for antagonists” value [1] is given as “yohimbine>phentolamine=mianserine>chlorpromazine=spiperone=prazosin>propanolol>alprenolol=pindolol”.

For `CN1CCN2c3ncccc3Cc3ccccc3C2C1` (stereo not shown) [mirtazapine], the P-gp substrate property (P-gp) is given as “not substrates of P-gp”.

In the case of `NC[C@H](O)c1ccc(O)c(O)c1` [norepinephrine], the “rank order of potency for agonists” value [1] is given as “oxymetazoline>clonidine>epinephrine>norepinephrine>phenylephrine>dopamine>p-synephrine>p-tyramine>serotonin=p-octopamine”.

For `CNCCC=C1c2ccccc2CCc2ccccc21` [nortriptyline], the “OR for nortriptyline-induced postural hypotension” value [5] is given as 1.37.

In the case of `Cc1cc2c(s1)Nc1ccccc1N=C2N1CCN(C)CC1` [olanzapine], the “effect on weight gain” value [6] is listed as “protective effect against weight-gain”.

In the case of `Cc1cc(C(C)(C)C)c(O)c(C)c1CC1=NCCN1` [oxymetazoline], the “rank order of potency for agonists” value [1] is given as “oxymetazoline>clonidine>epinephrine>norepinephrine>phenylephrine>dopamine>p-synephrine>p-tyramine>serotonin=p-octopamine”.

For `NCC(O)c1ccc(O)cc1` (stereo not shown) [p-octopamine], the “rank order of potency for agonists” value [1] is listed as “oxymetazoline>clonidine>epinephrine>norepinephrine>phenylephrine>dopamine>p-synephrine>p-tyramine>serotonin=p-octopamine”.

In the case of `CNCC(O)c1ccc(O)cc1` (stereo not shown) [p-synephrine], the “rank order of potency for agonists” value [1] is listed as “oxymetazoline>clonidine>epinephrine>norepinephrine>phenylephrine>dopamine>p-synephrine>p-tyramine>serotonin=p-octopamine”.

In the case of `NCCc1ccc(O)cc1` [p-tyramine], the “rank order of potency for agonists” value [1] is listed as “oxymetazoline>clonidine>epinephrine>norepinephrine>phenylephrine>dopamine>p-synephrine>p-tyramine>serotonin=p-octopamine”.

For `Fc1ccc([C@@H]2CCNC[C@H]2COc2ccc3c(c2)OCO3)cc1` [paroxetine], the P-gp substrate property (P-gp) is given as “substrates of P-gp” and the response to paroxetine [7] is given as “poor response”.

For `Cc1ccc(N(CC2=NCCN2)c2cccc(O)c2)cc1` [phentolamine], the “rank order for antagonists” value [1] is listed as “yohimbine>phentolamine=mianserine>chlorpromazine=spiperone=prazosin>propanolol>alprenolol=pindolol”.

For `CC(C)NCC(O)COc1cccc2[nH]ccc12` (stereo not shown) [pindolol], the “rank order for antagonists” value [1] is given as “yohimbine>phentolamine=mianserine>chlorpromazine=spiperone=prazosin>propanolol>alprenolol=pindolol”.

In the case of `Cc1nc2n(c(=O)c1CCN1CCC(c3noc4cc(F)ccc34)CC1)CCCC2` [risperidone], the response to risperidone [8] is given as “better response”, the AUC of risperidone (3435TT versus 3435CC subjects who were CYP2D6*10/*10, P=0.001) is given as “higher” and the “metabolic ratios of risperidone” value (3435TT versus 3435CC with CYP2D6*10/*10, P=0.006) is given as “higher”. For the same compound, the AUC of risperidone (between ABCB1 3435C>T genotypes, healthy subjects (n=72), 2 mg) was “no significant differences”.

For `NCCc1c[nH]c2ccc(O)cc12` [serotonin], the “rank order of potency for agonists” value [1] is listed as “oxymetazoline>clonidine>epinephrine>norepinephrine>phenylephrine>dopamine>p-synephrine>p-tyramine>serotonin=p-octopamine”.

In the case of `O=C(CCCN1CCC2(CC1)C(=O)NCN2c1ccccc1)c1ccc(F)cc1` [spiperone], the “rank order for antagonists” value [1] is given as “yohimbine>phentolamine=mianserine>chlorpromazine=spiperone=prazosin>propanolol>alprenolol=pindolol”.

In the case of `COc1ccc(C(CN(C)C)C2(O)CCCCC2)cc1` (stereo not shown) [venlafaxine XR], the “treatment outcome over time” value [9] is given as “better treatment outcome”.

In the case of `COc1ccc(C(CN(C)C)C2(O)CCCCC2)cc1` (stereo not shown) [venlafaxine], the P-gp substrate property (P-gp) is given as “substrates of P-gp”.

For `COC(=O)[C@@H]1[C@H]2C[C@H]3c4[nH]c5ccccc5c4CCN3C[C@@H]2CC[C@@H]1O` [yohimbine], the “rank order for antagonists” value [1] is listed as “yohimbine>phentolamine=mianserine>chlorpromazine=spiperone=prazosin>propanolol>alprenolol=pindolol”.
